In US20230405063A1, “USE OF PROBIOTIC COMPONENT AND PHARMACEUTICAL COMPOSITION CONTAINING PROBIOTIC COMPONENT” (CHENGDU KUACHANGAOPU MEDICAL TECHNOLOGY CO., LTD., priority 2020, published 2023):

Key:
[1] = tested on: breast cancer 4T1 cells; assay: Extra-tumoral local administration in 4T1 tumor-bearing BALB/c mice, R7d/R21d (Example 11, Table 17); type: in vivo; conditions: subaxillary intradermal (extra-tumoral), twice at 7-day interval, 120 μl/mouse/time; for R7 d (relative tumor proliferation rate): day 7 after last dose; for R21 d (relative tumor proliferation rate): day 21 after last dose
Procedure: V=0.5×a×b^2, wherein a and b represent the length and width of the local lesion, respectively; Volume of the local lesion (e.g. tumor):
Local lesion (e.g., tumor) proliferation rate (R)=TV/CV×100, wherein TV and CV are the local lesion volumes in the study group and negative control group, respectively;
In the following examples of the present invention, the combinational pharmaceutical efficacies (drug efficacies) of drug A and drug B co-administration was determined by ratio q of actual pharmaceutical efficacy (drug efficacy)/theoretical pharmaceutical efficacy (drug efficacy) according to Zhengjun JIN method, as follows.
BALB/c mice were used as experimental subjects, and breast cancer 4T1 cells were used as modeling cells. 0.25×10^5 cells/mouse were injected into the right axilla subcutaneously for transplantation tumor modeling. On the 5th day after modeling, the test animals with visually obvious tumors were randomly divided into 12 groups, having 10 animals in each group. […] In groups 1-11, on days 7 and 21 after the last dose the tumor volume (V7d, V21d) were measured, and the relative tumor proliferation rates (R7d, R21d) were calculated relative to the negative control group on days 7 and 21 after the dose, so that the short-term therapeutic effectiveness (100%−R7d) and the medium- and long-term therapeutic effectiveness (100%−R21d) could be calculated, respectively. Further, based on the short-term therapeutic effectiveness and the medium- and long-term therapeutic effectiveness, the actual/expected ratio for short-term pharmaceutical efficacies q7d and the actual/expected ratio for medium- and long-term pharmaceutical efficacies q21d were calculated respectively.

[2] = tested on: human liver cancer HepG2 cells; assay: Tumor inhibition in HepG2 tumor-bearing nude mice (Example 2, Table 4); type: in vivo; conditions: for Tumor weight (x ± s) / Tumor inhibition rate r: dosed once, 150 μl/mouse; for Tumor weight (x ± s): 7th day after administration; for Tumor inhibition rate r: 7th day, relative to negative control; for Ratio of tumor inhibition rates, intratumoral group / intravenous group of the same drug (E7/E1, E8/E2, E10/E4): same drug and dose, local vs systemic administration
Procedure: The tumor-bearing nude mice were widely used for drug studies on chemotherapy rather than immunotherapy in patients with solid tumors. Taking nude mice as experimental subjects, human liver cancer HepG2 cells were used as modeling cells, and 1×10^5 cells/mouse were injected into the right axilla subcutaneously for transplantation tumor modeling, and the average tumor volume of successfully modeled nude mice was 161.3 mm^3. The model animals were randomly divided into 17 groups. The drugs were administered according to the drug and dosing method in Table 4. Each group was dosed once with an injection volume of 150 μl/mouse. On the 7th day after drug administration, the animals were euthanized, and after dissection, the tumor tissue was taken out to determine the tumor weight, and the tumor inhibition rate (r) was calculated relative to the negative control group.

[3] = tested on: fibroblast 3T3 cells; assay: Tumor incidence rate after 3T3 cell transplantation (S3T3) on day 30 (Example 12, Table 18); type: in vivo, BALB/c mice; conditions: cells transplanted on 30th day, observed 10th day after transplantation; for Series A S3T3 (tumor incidence rate of 3T3 cell transplantation): series A modeled mice, intratumoral injection; for Series B S3T3 (tumor incidence rate of 3T3 cell transplantation): series B unmodeled mice, intramuscular injection into right hind thigh
Procedure: (§1) BALB/c mice were used as experimental subjects, in which modeled animals were used as series A and unmodeled animals as series B. […] The modeled animals were randomly divided into 18 groups, with 10 animals in each group, and the drugs according to Table 18 was administered via intratumoral injection. BALB/c mice were additionally taken as experimental subjects without modeling, and randomly divided into 18 groups, with 10 animals in each group, the drugs according to Table 18 was administered via intramuscular injection into the right hind thigh. All the study drugs comprising probiotic components were formulated as aqueous formulations according to the preparation method of Example 1, and the other drugs were formulated as aqueous solutions according to the existing well-known methods. Each group was administered twice at an interval of 3 days, and the dosage was 50 ul/mouse/time.

[4] = tested on: breast cancer 4T1 cells; assay: Tumor incidence rate after 4T1 cell transplantation (S4T1) on day 30 (Example 12, Table 18); type: in vivo, BALB/c mice; conditions: cells transplanted on 30th day, observed 10th day after transplantation; for Series A S4T1 (tumor incidence rate of 4T1 cell transplantation): series A modeled mice, intratumoral injection; for Series B S4T1 (tumor incidence rate of 4T1 cell transplantation): series B unmodeled mice, intramuscular injection into right hind thigh
Procedure: as §1

[5] = tested on: lung tumor cells (A549); assay: Tumor inhibition in A549 tumor-bearing nude mice, co-administration (Example 5, Table 7); type: in vivo; conditions: dosed once, 7th day, probiotic component = heat-inactivated Saccharomyces boulardii
Description: The method for determining the effect of combined drug administration in animal experiments was Burgi method (Burgi Y. Pharmacology; Drug actions and reactions. Cancerres. 1978, 38(2), 284-285). The Burgi method was modified by Zhengjun JIN (Zhengjun JIN, Equal probability and curve and “Q50”, Journal of the Second Shanghai Medical College; 1981, 1, 75-86) with q calculated as: q=EA+B/(EA+EB−EA×EB). In the following examples of the present invention, the combinational pharmaceutical efficacies (drug efficacies) of drug A and drug B co-administration was determined by ratio q of actual pharmaceutical efficacy (drug efficacy)/theoretical pharmaceutical efficacy (drug efficacy) according to Zhengjun JIN method, as follows.
Nude mice were used as experimental subjects, and lung tumor cells (A549) were used as modeling cells, 1×10^5 cells/mouse were injected into the right axilla subcutaneously for transplantation tumor modeling, and the average tumor volume of successfully modeled nude mice was 153.7 mm^3. The model animals were randomly divided into 18 groups, and the drugs were administered according to the drug components and administration route in Table 7. Each group was dosed once with an injection volume of […]. Wherein, the probiotic component was heat-inactivated Saccharomyces boulardii, and the administration route of group 16 was intra-tumoral injection of probiotic component followed by intra-tumoral injection of 10% arginine about 2 hours later. On the 7th day after drug administration, the animals were euthanized, and after dissection, the tumor tissue was taken out to determine the tumor weight, and the tumor inhibition rate (r) was calculated relative to the negative control group. Further, the actual efficacy/expected efficacy ratio q of a drug could also be calculated according to the therapeutic effect (tumor inhibition rate).

[6] = tested on: outer lateral muscle mass of the right leg; assay: Local effect on normal muscle tissue, area of abnormal regions, BALB/c mice (Example 9, Table 15); type: in vivo; conditions: dosed once into muscle, 100 ul/mouse, 7th day
Procedure: BALB/c mice were used as experimental subjects, and the model animals were randomly divided into 4 groups, having 6 animals in each group. The drugs were administered according to Table 15. […] On the 7th day after drug administration, the animals were euthanized. The specimens of the outer lateral muscle mass of the right leg were taken out by autopsy, and perform a general pathological analysis. The sections were measured for the area of abnormal regions such as necrosis and nodules that distinguished from normal muscle.

[7] = tested on: outer lateral muscle mass of the right leg; assay: Local effect on normal muscle tissue, area of abnormal regions, nude mice; type: in vivo
Procedure: The animals were euthanized on the 7th day after drug administration, and the specimens of the outer lateral muscle mass of the right leg from the nude mice were taken out by autopsy, and the areas of abnormal regions different from normal muscles, such as of necrosis and nodules, were measured after sectioning and washing.
Each group was dosed once with an injection volume of 100 μl/mouse by administering to the outer lateral muscle mass of the right leg. On the 7th day after drug administration, the animals were euthanized, and the specimens of the outer lateral muscle mass of the right leg were taken out after dissection to perform a general pathological analysis. The sections were measured for the area of abnormal regions that distinguished from normal muscle, such as necrosis and nodules.

[8] = intratumoral injection, '+' = arginine injected about 2 hours later

Structure (SMILES)	R7 d (relative tumor proliferation rate) [1] [%]	R21 d (relative tumor proliferation rate) [1] [%]	Tumor weight (x ± s) ([2]; intratumoral injection) [g]	Tumor inhibition rate r ([2]; intratumoral injection) [%]	Tumor weight (x ± s) ([2]; intravenous injection) [g]	Tumor inhibition rate r ([2]; intravenous injection) [%]	Ratio of tumor inhibition rates, intratumoral group / intravenous group of the same drug (E7/E1, E8/E2, E10/E4) [2] [%]	Series A S3T3 (tumor incidence rate of 3T3 cell transplantation) [3] [%]	Series B S3T3 (tumor incidence rate of 3T3 cell transplantation) [3] [%]	Series A S4T1 (tumor incidence rate of 4T1 cell transplantation) [4] [%]	Series B S4T1 (tumor incidence rate of 4T1 cell transplantation) [4] [%]	Tumor inhibition rate r [5, 8] [%]	Tumor weight (x ± s) [5, 8] [g]	Tumor inhibition rate r ([5]; intravenous injection) [%]	Tumor weight (x ± s) ([5]; intravenous injection) [g]	Area of abnormal regions [6] [mm^2]	Area of abnormal regions (necrosis, nodules) ([7]; dosed once into muscle 100 μl/mouse, 7th day (b197 experiment)) [mm^2]	Areas of the abnormal regions (necrosis, nodules) ([7]; injection into muscle 100 ul/mouse, 7th day (b168 experiment)) [mm^2]
O=c1[nH]cc(F)c(=O)[nH]1 [1% 5-fluorouracil, 5-fluorouracil]	73	93	0.133 ± 0.094	49.5	0.139 ± 0.094	42.3	< 200	100	100	100	100	46.6	0.116 ± 0.076	41.3	0.122 ± 0.065			
CCO [75% ethanol, ethanol]	92	107	0.122 ± 0.085	53.6	0.226 ± 0.113	6.1	> 200	100	100	100	100	33.7	0.145 ± 0.084	2.7	0.203 ± 0.095	33.16 ± 13.44	32.24±13.71	35.14±15.92
